The values below are quoted from earlier work in US20240226024A1 (Empros Pharma AB, priority 2021, published 2024).

The conditions of data set [1]: for Additional weight loss relative to placebo at one year: on average; for Placebo adjusted reduction of body weight: oral administration for 6 months.
For data set [2] the following is noted: for Fraction of the dose absorbed: oral administration.
Assay in data set [3]: not given
The source holds these as a separate data set.

Regarding `C[C@H]1CNCCc2ccc(Cl)cc21` [lorcaserin], in data set [1] (human, in vivo), the “Decrease of body weight more than placebo” value is on record as “about 3.2 kg” and the “Decrease of body weight more than placebo, % of initial body weight” value is “about 3.2%”. Moreover, the “Additional weight loss relative to placebo at one year” value in data set [1] is given as around 3%.
As to `OCCN1C[C@H](O)[C@@H](O)[C@H](O)[C@H]1CO` [Miglitol, miglitol], the “Fraction of the dose absorbed” value in data set [2] is recorded as 100%.
Regarding `OCC(CO)N[C@H]1C[C@](O)(CO)[C@@H](O)[C@H](O)[C@H]1O` [voglibose], in data set [2], the “Fraction of the dose absorbed” value is on record as “only negligibly absorbed”.
What is called log P is the decadic logarithm of the partition coefficient of the neutral form, usually between octanol and water. For the compound `CCCCCCCCCCC[C@@H](C[C@@H]1OC(=O)[C@H]1CCCCCC)OC(=O)[C@H](CC(C)C)NC=O` [orlistat, (S)-((S)-1-((2S,3S)-3-Hexyl-4-oxooxetan-2-yl)tridecan-2-yl) 2-formamido-4-methylpentanoate], the “Solubility in water (in words)” value is “practically insoluble in water”, the Water solubility entry is listed as “less than 0.001 g/ml” and the log partition coefficient (log P) is recorded as 8.5. In addition, the “Fraction of the dose absorbed” value in data set [2] is below 3%. Besides, the Plasma exposure in data set [2] (oral, conventional dosage form) is below 5 ng/mL. Moreover, the “Relative weight loss, best case scenario” value in data set [1] (conventional dosage form, placebo 6%) is on record as 10%. Further, the “Approximate relative weight loss, conventional dosage form” value in data set [1] (conventional dosage forms) is 2-3%. For the same compound, in data set [1], the “Additional weight loss relative to placebo at one year” value is reported as around 3% and the “Placebo adjusted reduction of body weight” value was 2-3%. For the same compound, in data set [3] (6-month trial), the “Participants who reported faecal incontinence, similar 6-month trial” value is 5%. Further, the “Patients who complain about GI side-effects in clinical trials” value in data set [3] (diarrhea, oily spotting and fecal urgency) is reported as at least 25%. Further, the “Participants who reported faecal incontinence, trials of longer duration” value in data set [3] (trials of longer duration) is reported as “approximately 18%”.
With `C[C@H]1O[C@H](O[C@H]2[C@H](O)[C@@H](O)[C@@H](O[C@H]3[C@H](O)[C@@H](O)C(O)O[C@@H]3CO)O[C@@H]2CO)[C@H](O)[C@@H](O)[C@@H]1N[C@H]1C=C(CO)[C@@H](O)[C@H](O)[C@H]1O` (stereo partly drawn) [acarbose, O-4,6-Dideoxy-4-[[(1S,4R,5S,6S)-4,5,6-trihydroxy-3-(hydroxymethyl)cyclohex-2-enyl]amino]-α-D-glucopyranosyl-(1→4)-O-α-D-gluco-pyranosyl-(1→4)-D-glucopyranose], in data set [1], the “Placebo adjusted reduction of body weight” value is “approx. 0.5%”.
